Where two headings read alike, the source gives them in different places.

Drawing on US20260176289A1, “SMALL MOLECULE INHIBITORS OF KRAS PROTEINS” (Merck Sharp & Dohme LLC, priority 2022, published 2026), this text covers IC50 for nine compounds.

For experiment [1], the target named is KRAS-G13D (Homo sapiens, UniProt P01116, G13D). Put plainly: SOS-catalyzed nucleotide exchange assay (Procedure A, TR-FRET), KRAS-G13D. The settings on record: nucleotide exchange, Procedure A; read-out: KRAS G13D GNE IC50. In kind it is biochemical. From the text:
(§1) Procedure for SOS-Catalyzed Nucleotide Exchange Assay for KRAS-WT, G12C/D/V, G13D, HRAS, and NRAS (Procedure A)
(§2) Recombinant KRAS-G12C protein used in this assay has an additional triple mutation (C51S/C80L/C118S). Whereas KRAS-WT, G12D/V, G13D, HRAS and NRAS are in context of their WT protein sequence background. Specifically, the SOS-catalyzed nucleotide exchange assay utilizes a preformed TR-FRET complex containing a specific biotinylated RAS protein (KRAS-WT, G12C/V/D, G13D, HRAS, NRAS; described above) with Bodipy-GDP, and Terbium-streptavidin. Compounds are preincubated with this complex for 60 minutes. Subsequently, recombinant human SOS protein and unlabeled GTP are added to initiate the exchange reaction. Small molecule inhibitors stabilize the Bodipy-GDP complex whereas the untreated protein rapidly exchanges Bodipy-GDP for unlabeled GTP resulting in reduced TR-FRET signal.
(§3) To assemble the preformed TR-FRET complexes, each biotinylated RAS protein is diluted to 2 μM in an EDTA Buffer (20 mM HEPES pH 7.5, 50 mM sodium chloride, 10 mM EDTA, and 0.01% Tween) and incubated at room temperature for one hour. This mixture is then further diluted to 90 nM in an Assay Buffer (20 mM HEPES pH 7.5, 150 mM sodium chloride, 10 mM magnesium chloride, and 0.005% Tween) containing 15 nM of Terbium-Streptavidin (Invitrogen, catalog #PV3577) and 900 nM of Bodipy-GDP (Invitrogen, catalog #G22360) and incubated at room temperature for six hours. It should be noted that this preformed TR-FRET complex for each of the RAS protein were made ahead of time, aliquoted and stored at −80° C. until the day of the experiment.
(§4) Each test compound (10 mM stock in DMSO) is diluted in DMSO to make a final-10-point, 3-fold dilution and is acoustically dispensed into a 384-well assay plate (Corning, catalog #3820) using an Echo 550 (Labcyte). Each well of the assay plate receives 3 μL of a specific 3×RAS preformed TR-FRET complex and 3 μL of Assay Buffer and is incubated at room temperature for 60 minutes (preincubation time). Each well then receives 3 μL of 3×recombinant human SOS protein and GTP (Sigma, G8877) in Assay Buffer and is incubated at room temperature for 30 minutes (G13D), 60 minutes (KRAS WT/G12C/D, H/NRAS) or 90 minutes for G12V. The final reaction in each well of 9 μL consists of 3 mM GTP, specific Ras and SOS proteins in the following concentrations: KRAS-G12C/SOS=3 nM/40 nM, KRAS-WT and G12D/SOS=1 nM/40 nM, KRAS-G12V/SOS=1.25 nM/160 nM. KRAS-G13D/SOS=1.25 nM/0 nM, HRAS and NRAS=1.25 nM/40 nM.
(§5) The time-resolved fluorescence resonance energy transfer (TR-FRET) signal is measured on an Envision (PerkinElmer) plate reader: Excitation filter=340 nm; emission 1=495 nm; emission2=520 nm; dichroic mirror=D400/D505; delay time=[…]. The signal of each well is determined as the ratio of the emission at 520 nm to that at 495 nm. Percent effect of each well is determined after normalization to control wells containing DMSO (no effect) or a saturating concentration of inhibitor (max effect). The apparent effect as a function of compound concentration is fit to a four-parameter logistic equation.
In general terms: TR-FRET usually uses a lanthanide donor and a delayed reading to cut background.

Experiment [2] deals with KRAS-G12C (C51S/C80L/C118S) (Homo sapiens, UniProt P01116, C118S/C51S/C80L/G12C). Put plainly: SOS-catalyzed nucleotide exchange assay (Procedure A, TR-FRET), KRAS-G12C. In kind it is biochemical. The conditions noted are these: nucleotide exchange, Procedure A; read-out: KRAS G12C GNE IC50.
From the text: as §1, §2, §3, §4, §5

The target of experiment [3] is KRAS-G12D (Homo sapiens, UniProt P01116, G12D). Put plainly: SOS-catalyzed nucleotide exchange assay (Procedure A, TR-FRET), KRAS-G12D. The class given is biochemical. The conditions noted are these: nucleotide exchange, read-out: KRAS G12D GNE IC50. The essentials:
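Signal ratio (520/495 nm, excitation 340 nm) reports Bodipy-GDP retention on biotinylated RAS after SOS-catalyzed exchange with 3 mM GTP. SOS was 40 nM, except 160 nM for G12V. Room-temperature exchange lasted 60 min (90 min for G12V), following a 60 min compound preincubation.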

For experiment [4], the target named is KRAS-G12V (Homo sapiens, UniProt P01116, G12V). Put plainly: SOS-catalyzed nucleotide exchange assay (Procedure A, TR-FRET), KRAS-G12V. In kind it is biochemical. The conditions noted are these: nucleotide exchange, read-out: KRAS G12V GNE IC50. The gist of the method:
(§6)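 TR-FRET readout (520/495 nm) of SOS-driven exchange of Bodipy-GDP for unlabeled GTP (3 mM) on biotinylated, Tb-streptavidin-bound RAS, after 60 min compound preincubation at room temperature. Exchange times and RAS/SOS levels: 60 min for WT (1/40 nM), G12C triple mutant (3/40 nM), NRAS (1.25/40 nM); 90 min for G12V (1.25/160 nM). Four-parameter logistic fits on normalized effect.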

The target of experiment [5] is KRAS-WT (Homo sapiens, UniProt P01116). Put plainly: SOS-catalyzed nucleotide exchange assay (Procedure A, TR-FRET), KRAS-WT. The class given is biochemical. The conditions noted are these: nucleotide exchange, read-out: KRAS WT GNE IC50. The gist of the method:
as §6

Experiment [6] relates to AsPC-1 cells. Put plainly: Cellular phospho-ERK assay, AsPC-1 cells (homozygous KRAS-G12D). The class given is cell-based. The settings on record: Homo sapiens, ASPC1, 2 h, read-out: AsPC1 pERK IC50. The essentials:
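Cells seeded at 10,000-15,000 per well were incubated overnight, then exposed to compound for 2 hours at 37 °C in a 10-point, 1:3 series topping at 30 μM final. Lysates were assayed by Alpha SureFire Ultra multiplex for p-ERK and total ERK; IC50 came from a 4-parameter logistic fit of their ratio.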

Sequence of KRAS-G12V (P01116 with tags, fused parts or gaps isoform P01116-2 G12V): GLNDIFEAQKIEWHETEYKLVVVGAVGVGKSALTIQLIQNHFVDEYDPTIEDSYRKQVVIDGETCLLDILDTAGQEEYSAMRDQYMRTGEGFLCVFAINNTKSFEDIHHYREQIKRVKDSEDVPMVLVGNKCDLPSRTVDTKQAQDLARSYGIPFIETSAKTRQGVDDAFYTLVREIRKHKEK
Sequence of KRAS-G12C (C51S/C80L/C118S) (P01116 with tags, fused parts or gaps isoform P01116-2 G12C/C51S/C80L/C118S): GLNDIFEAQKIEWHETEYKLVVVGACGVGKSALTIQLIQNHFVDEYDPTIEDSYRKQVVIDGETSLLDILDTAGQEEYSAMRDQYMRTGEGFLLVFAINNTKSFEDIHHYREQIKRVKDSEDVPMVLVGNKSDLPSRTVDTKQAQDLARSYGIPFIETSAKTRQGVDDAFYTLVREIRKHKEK
Sequence of KRAS-G12D (P01116 with tags, fused parts or gaps isoform P01116-2 G12D): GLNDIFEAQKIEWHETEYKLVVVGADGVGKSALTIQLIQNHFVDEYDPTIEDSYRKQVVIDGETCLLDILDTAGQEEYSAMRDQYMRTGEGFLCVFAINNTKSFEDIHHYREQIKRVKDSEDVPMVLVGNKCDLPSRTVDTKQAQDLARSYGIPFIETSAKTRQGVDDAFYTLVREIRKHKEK
Sequence of KRAS-G13D (P01116 with tags, fused parts or gaps isoform P01116-2 G13D): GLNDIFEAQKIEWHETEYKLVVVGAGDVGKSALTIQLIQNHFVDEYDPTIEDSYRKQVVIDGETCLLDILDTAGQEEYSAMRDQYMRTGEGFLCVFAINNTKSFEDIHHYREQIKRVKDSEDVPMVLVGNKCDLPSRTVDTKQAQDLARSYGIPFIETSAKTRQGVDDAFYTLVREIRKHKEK
Sequence of KRAS-WT (P01116 with tags, fused parts or gaps isoform P01116-2): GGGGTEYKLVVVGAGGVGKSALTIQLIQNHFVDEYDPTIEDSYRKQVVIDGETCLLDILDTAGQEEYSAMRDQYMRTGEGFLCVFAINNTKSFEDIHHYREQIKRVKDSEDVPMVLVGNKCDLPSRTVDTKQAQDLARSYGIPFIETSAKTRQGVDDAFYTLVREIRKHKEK

A word on the IC50: it is the concentration that gives 50% inhibition. In the case of `Cc1cc2[nH]ncc2c(-c2nccc3c2sc2nc(OC[C@@]45CCCN4C[C@H](F)C5)nc(NC4CCC4)c23)c1C(F)(F)F` [Ex-191, N-cyclobutyl-2-(((2R,7aS)-2-fluorotetrahydro-1H-pyrrolizin-7a(5H)-yl)methoxy)-8-(6-methyl-5-(trifluoromethyl)-1H-indazol-4-yl)pyrido [4′,3′:4,5]thieno[2,3-d] pyrimidin-4-amine], the half-maximal inhibitory concentration (IC50) in experiment [1] is 3690 nM; in experiment [2], 423 nM; in experiment [3], 11100 nM; in experiment [4] it was 5630 nM; in experiment [5], 11100 nM; in experiment [6] (2 hours compound incubation) it was 8560 nM.
`C=C(C)c1c(C)cc2[nH]ncc2c1-c1nccc2c1oc1nc(OC[C@]3(CN(C)C)CC3(F)F)nc(N3CCOC[C@@](C)(O)C3)c12` [Ex-293, (6S)-4-(2-(((R)-1-((dimethylamino)methyl)-2,2-difluorocyclopropyl)meth-oxy)-8-(6-methyl-5-(prop-1-en-2-yl)-1H-indazol-4-yl)pyrido[4′,3′:4,5]furo[2,3-d]pyrimidin-4-yl)-6-methyl-1,4-oxazepan-6-ol]: the IC50 in experiment [1] amounted to 296 nM; in experiment [2], 136 nM; in experiment [3], 149 nM; in experiment [4], 203 nM; in experiment [5], 455 nM; in experiment [6] (KRAS-G12D, 2 hours), 1010 nM.
Take `Cc1cc2[nH]ncc2c(-c2nncc3c2sc2nc(OC[C@@]45CCCN4C[C@H](F)C5)nc(N4CCOC[C@@](C)(O)C4)c23)c1C(F)(F)F` [Ex-277, (6S)-4-(2-(((2R,7aS)-2-fluorotetrahydro-1H-pyrrolizin-7a(5H)-yl)methoxy)-8-(6-methyl-5-(trifluoromethyl)-1H-indazol-4-yl)pyrimido[5′,4′:4,5]thieno[2,3-d]pyridazin-4-yl)-6-methyl-1,4-oxazepan-6-ol]: the IC50 in experiment [1] came out at 38 nM; in experiment [2] it was 184 nM; in experiment [3], 39.2 nM; in experiment [4], 64.6 nM; in experiment [5], 94.6 nM; in experiment [6] (KRAS-G12D, 2 hours) it was 1100 nM.
As for `Cc1cc2[nH]ncc2c(-c2nccc3c2sc2nc(OC[C@@]45CCCN4C[C@H](F)C5)nc(NC4CNC(=O)C4)c23)c1C(F)(F)F` (stereo partly drawn) [Ex-192, 4-((2-(((2R,7aS)-2-fluoro-tetrahydro-1H-pyrrolizin-7a(5H)-yl)methoxy)-8-(6-methyl-5-(trifluorometh-yl)-1H-indazol-4-yl)pyrido [4′,3′:4,5]thieno[2,3-d]pyrimidin-4-yl)amino)-pyrrolidin-2-one], the IC50 in experiment [1] came to 409 nM; in experiment [2] it was 121 nM; in experiment [3], 283 nM; in experiment [4] it was 192 nM; in experiment [5], 418 nM; in experiment [6] (2 hours compound incubation) it was 30000 nM.
Regarding `Cc1cc2[nH]ncc2c(-c2ncnc3c2sc2nc(OC[C@@]45CCCN4C[C@H](F)C5)nc(N4CCOC[C@@](C)(O)C4)c23)c1C(F)(F)F` [Ex-276, (6S)-4-(7-(((2R,7aS)-2-fluorotetrahydro-1H-pyrrolizin-7a(5H)-yl)methoxy)-4-(6-methyl-5-(trifluoromethyl)-1H-indazol-4-yl)thieno[2,3-d:4,5-d′]dipyrimidin-9-yl)-6-methyl-1,4-oxazepan-6-ol], the IC50 in experiment [1] was determined as 461 nM; in experiment [2], 124 nM; in experiment [3], 423 nM; in experiment [4] it was 312 nM; in experiment [5], 796 nM; in experiment [6] (KRAS-G12D, 2 hours), 1810 nM.
For `Cc1cc2[nH]ncc2c(-c2nccc3c2sc2nc(OC[C@@]45CCCN4C[C@H](F)C5)nc(N4CCCC5(CNC(=O)C5)C4)c23)c1C(F)(F)F` (stereo partly drawn) [Ex-193, 7-(2-(((2R,7aS)-2-fluoro-tetrahydro-1H-pyrrolizin-7a(5H)-yl)methoxy)-8-(6-methyl-5-(trifluorometh-yl)-1H-indazol-4-yl)pyrido [4′,3′:4,5]thieno[2,3-d]pyrimidin-4-yl)-2,7-diaza-spiro[4.5]decan-3-one], the IC50 in experiment [1] stood at 970 nM; in experiment [2], 418 nM; in experiment [3], 643 nM; in experiment [4], 476 nM; in experiment [5] it was 1200 nM; in experiment [6] (2 hours compound incubation), 18300 nM.
For `Cc1cc2[nH]ncc2c(-c2nccc3c2sc2nc(OC[C@@]45CCCN4C[C@H](F)C5)nc(N4CCOC[C@@](C)(O)C4)c23)c1-c1ccsc1` [Ex-139, (6S)-4-(2-(((2R, 7aS)-2-fluorotetra-hydro-1H-pyrrol-izin-7a(5H)-yl)meth-oxy)-8-(6-methyl-5-(thiophen-3-yl)-1H-indazol-4-yl)pyrido [4′,3′:4,5]thieno[2,3-d]pyrimidin-4-yl)-6-methyl-1,4-oxaze-pan-6-ol], the IC50 in experiment [1] was found to be 377 nM; in experiment [2], 159 nM; in experiment [3] it was 129 nM; in experiment [4] it was 128 nM; in experiment [5] it was 319 nM; in experiment [6] (2 hours compound incubation), 663 nM.
Consider `Cc1cc2[nH]ncc2c(-c2nccc3c2sc2nc(OC[C@@]45CCCN4C[C@H](F)C5)nc(N4CCOC[C@@](C)(O)C4)c23)c1C1CCCC1` [Ex-147, (6S)-4-(8-(5-cyclo-pentyl-6-methyl-1H-indazol-4-yl)-2-(((2R,7aS)-2-fluoro-tetrahydro-1H-pyr-rolizin-7a(5H)-yl)-methoxy)pyrido [4′,3′:4,5]thieno[2,3-d]pyrimidin-4-yl)-6-methyl-1,4-oxaze-pan-6-ol], for which the IC50 in experiment [1] came to 936 nM; in experiment [2], 438 nM; in experiment [3] it was 284 nM; in experiment [4], 293 nM; in experiment [5], 670 nM; in experiment [6] (2 hours compound incubation), 1260 nM.
Take `Cc1cc2[nH]ncc2c(-c2nccc3c2sc2nc(OC[C@@]45CCCN4C[C@H](F)C5)nc(N4CCOC[C@@](C)(O)C4)c23)c1-c1cccs1` [Ex-138, (6S)-4-(2-(((2R, 7aS)-2-fluorotetra-hydro-1H-pyrrolizin-7a(5H)-yl)methoxy)-8-(6-methyl-5-(thio-phen-2-yl)-1H-ind-azol-4-yl)pyrido [4′,3′:4,5]thieno[2,3-d]pyrimidin-4-yl)-6-methyl-1,4-oxaze-pan-6-ol]: the IC50 in experiment [1] came to 337 nM; in experiment [2] it was 120 nM; in experiment [3], 150 nM; in experiment [4], 245 nM; in experiment [5], 398 nM; in experiment [6] (2 hours compound incubation), 703 nM.
